Legend:
Type in all cases: functional
OVCAR-4 = experiment: Growth inhibition of human OVCAR4 cells assessed as cell growth at 3X10'-8 M after 48 hrs by sulforhodamine B assay; settings: OVCAR-4, 48 h, read-out: Activity
CAKI-1 [1] = experiment: Growth inhibition of human CAKI-1 cells assessed as cell growth at 3X10'-7 M after 48 hrs by sulforhodamine B assay; settings: CAKI-1, 48 h, read-out: Activity
SNB-19 = experiment: Growth inhibition of human SNB19 cells assessed as cell growth at 3X10'-7 M after 48 hrs by sulforhodamine B assay; settings: SNB-19, 48 h, read-out: Activity
SK-MEL-2 = experiment: Growth inhibition of human SK-MEL-2 cells assessed as cell growth at 3X10'-6 M after 48 hrs by sulforhodamine B assay; settings: SK-MEL-2, 48 h, read-out: Activity
SF-268 = experiment: Growth inhibition of human SF268 cells assessed as cell growth at 3X10'-6 M after 48 hrs by sulforhodamine B assay; settings: SF-268, 48 h, read-out: Activity
NCI-H322M = experiment: Growth inhibition of human NCI-H322M cells assessed as cell growth at 3X10'-9 M after 48 hrs by sulforhodamine B assay; settings: read-out: Activity
SF-295 = experiment: Growth inhibition of human SF295 cells assessed as cell growth at 3X10'-9 M after 48 hrs by sulforhodamine B assay; settings: SF-295, 48 h, read-out: Activity
K562 = experiment: Growth inhibition of human K562 cells assessed as cell growth at 3X10'-5 M after 48 hrs by sulforhodamine B assay; settings: K562, 48 h, read-out: Activity
RPMI-8226 = experiment: Growth inhibition of human RPMI8226 cells assessed as cell growth at 3X10'-7 M after 48 hrs by sulforhodamine B assay; settings: RPMI-8226, 48 h, read-out: Activity
SNB-75 = experiment: Growth inhibition of human SNB75 cells assessed as cell growth at 3X10'-8 M after 48 hrs by sulforhodamine B assay; settings: SNB-75, 48 h, read-out: Activity
[2] = Growth inhibition of human HCC2998 cells assessed as cell growth at 3X10'-8 M after 48 hrs by sulforhodamine B assay; settings: HCC 2998, 48 h, read-out: Activity
T47D [3] = experiment: Growth inhibition of human T47D cells assessed as cell growth at 3X10'-6 M after 48 hrs by sulforhodamine B assay; settings: read-out: Activity
CCRF-CEM = experiment: Growth inhibition of human CCRF-CEM cells assessed as cell growth at 3X10'-9 M after 48 hrs by sulforhodamine B assay; settings: read-out: Activity
CAKI-1 [4] = experiment: Growth inhibition of human CAKI-1 cells assessed as cell growth at 3X10'-9 M after 48 hrs by sulforhodamine B assay; settings: CAKI-1, 48 h, read-out: Activity
NCI-H522 [5] = experiment: Growth inhibition of human NCI-H522 cells assessed as cell growth at 3X10'-6 M after 48 hrs by sulforhodamine B assay; settings: NCI-H522, 48 h, read-out: Activity
HOP-92 = experiment: Growth inhibition of human HOP92 cells assessed as cell growth at 3X10'-9 M after 48 hrs by sulforhodamine B assay; settings: HOP-92, 48 h, read-out: Activity
ACHN [6] = experiment: Growth inhibition of human ACHN cells assessed as cell growth at 3X10'-8 M after 48 hrs by sulforhodamine B assay; settings: read-out: Activity
[7] = Growth inhibition of human HCC2998 cells assessed as cell growth at 3X10'-9 M after 48 hrs by sulforhodamine B assay; settings: HCC 2998, 48 h, read-out: Activity
MOLT-4 = experiment: Growth inhibition of human MOLT4 cells assessed as cell growth at 3X10'-5 M after 48 hrs by sulforhodamine B assay; settings: MOLT-4, 48 h, read-out: Activity
RXF 393 = experiment: Growth inhibition of human RXF393 cells assessed as cell growth at 3X10'-8 M after 48 hrs by sulforhodamine B assay; settings: RXF 393, 48 h, read-out: Activity
COLO 205 = experiment: Growth inhibition of human COLO205 cells assessed as cell growth at 3X10'-5 M after 48 hrs by sulforhodamine B assay; settings: COLO 205, 48 h, read-out: Activity
MDA-MB-231 = experiment: Growth inhibition of human MDA-MB-231 cells assessed as cell growth at 3X10'-6 M after 48 hrs by sulforhodamine B assay; settings: MDA-MB-231, 48 h, read-out: Activity
OVCAR-8 [8] = experiment: Growth inhibition of human OVCAR8 cells assessed as cell growth at 3X10'-6 M after 48 hrs by sulforhodamine B assay; settings: OVCAR-8, 48 h, read-out: Activity
IGROV-1 = experiment: Growth inhibition of human IGROV1 cells assessed as cell growth at 3X10'-9 M after 48 hrs by sulforhodamine B assay; settings: IGROV-1, 48 h, read-out: Activity
A549 = experiment: Growth inhibition of human A549/ATCC cells assessed as cell growth at 3X10'-9 M after 48 hrs by sulforhodamine B assay; settings: A549, 48 h, read-out: Activity
TK-10 = experiment: Growth inhibition of human TK10 cells assessed as cell growth at 3X10'-5 M after 48 hrs by sulforhodamine B assay; settings: TK-10, 48 h, read-out: Activity
SW-620 = experiment: Growth inhibition of human SW620 cells assessed as cell growth at 3X10'-8 M after 48 hrs by sulforhodamine B assay; settings: SW-620, 48 h, read-out: Activity
DU-145 = experiment: Growth inhibition of human DU145 cells assessed as cell growth at 3X10'-6 M after 48 hrs by sulforhodamine B assay; settings: DU-145, 48 h, read-out: Activity
HL-60(TB) = experiment: Growth inhibition of human HL-60(TB) cells assessed as cell growth at 3X10'-5 M after 48 hrs by sulforhodamine B assay; settings: HL-60, 48 h, read-out: Activity
T47D [9] = experiment: Growth inhibition of human T47D cells assessed as cell growth at 3X10'-7 M after 48 hrs by sulforhodamine B assay; settings: read-out: Activity
ACHN [10] = experiment: Growth inhibition of human ACHN cells assessed as cell growth at 3X10'-7 M after 48 hrs by sulforhodamine B assay; settings: read-out: Activity
OVCAR-8 [11] = experiment: Growth inhibition of human OVCAR8 cells assessed as cell growth at 3X10'-5 M after 48 hrs by sulforhodamine B assay; settings: OVCAR-8, 48 h, read-out: Activity
UACC-257 = experiment: Growth inhibition of human UACC257 cells assessed as cell growth at 3X10'-6 M after 48 hrs by sulforhodamine B assay; settings: UACC-257, 48 h, read-out: Activity
SK-MEL-5 = experiment: Growth inhibition of human SK-MEL-5 cells assessed as cell growth at 3X10'-7 M after 48 hrs by sulforhodamine B assay; settings: SK-MEL-5, 48 h, read-out: Activity
NCI-H522 [12] = experiment: Growth inhibition of human NCI-H522 cells assessed as cell growth at 3X10'-8 M after 48 hrs by sulforhodamine B assay; settings: NCI-H522, 48 h, read-out: Activity
Malme-3M = experiment: Growth inhibition of human MALME-3M cells assessed as cell growth at 3X10'-8 M after 48 hrs by sulforhodamine B assay; settings: read-out: Activity

Work on COc1cc(-c2nn(-c3cccc(NC(=O)c4ccc(Cl)c(C(F)(F)F)c4)c3)cc2-c2ccncc2)ccc1Cl yielded a growth at 0.03 µM (OVCAR-4) of 103%, a growth at 0.3 µM (CAKI-1 [1]) of 85% and a growth at 0.3 µM (SNB-19) of 97%. For the same compound, the growth at 3 µM (SK-MEL-2) was 36%, the growth at 3 µM (SF-268) was 56% and the growth at 0.003 µM (NCI-H322M) was 91%. It also gave a growth at 0.003 µM (SF-295) of 92%, a growth at 30 µM (K562) of 11% and a growth at 0.3 µM (RPMI-8226) of 94%. The growth at 0.03 µM (SNB-75) was 89%, the growth at 0.03 µM [2] was 95% and the growth at 3 µM (T47D [3]) was 40%. The growth at 0.003 µM (CCRF-CEM) was 96%, the growth at 0.003 µM (CAKI-1 [4]) was 93% and the growth at 3 µM (NCI-H522 [5]) was 12%. The growth at 0.003 µM (HOP-92) was 94%, the growth at 0.03 µM (ACHN [6]) was 100% and the growth at 0.003 µM [7] was 95%. For the same compound, the growth at 30 µM (MOLT-4) was 24%, the growth at 0.03 µM (RXF 393) was 99% and the growth at 30 µM (COLO 205) was -13%. It also gave a growth at 3 µM (MDA-MB-231) of 27%, a growth at 3 µM (OVCAR-8 [8]) of 50% and a growth at 0.003 µM (IGROV-1) of 94%. It also gave a growth at 0.003 µM (A549) of 96%, a growth at 30 µM (TK-10) of 44% and a growth at 0.03 µM (SW-620) of 97%. For the same compound, the growth at 3 µM (DU-145) was 67%, the growth at 30 µM (HL-60(TB)) was 23% and the growth at 0.3 µM (T47D [9]) was 92%. The growth at 0.3 µM (ACHN [10]) was 90%, the growth at 30 µM (OVCAR-8 [11]) was 15% and the growth at 3 µM (UACC-257) was 60%. The growth at 0.3 µM (SK-MEL-5) was 93%, the growth at 0.03 µM (NCI-H522 [12]) was 94% and the growth at 0.03 µM (Malme-3M) was 78%.

For O=C(Nc1cccc(-n2cc(-c3ccncc3)c(-c3ccc(Cl)c(O)c3)n2)c1)Nc1ccc(Cl)c(Cl)c1, the growth at 0.03 µM (OVCAR-4) was 102%, the growth at 0.3 µM (CAKI-1 [1]) was 88% and the growth at 0.3 µM (SNB-19) was 101%. For the same compound, the growth at 3 µM (SK-MEL-2) was -11%, the growth at 3 µM (SF-268) was 23% and the growth at 0.003 µM (NCI-H322M) was 95%. The growth at 30 µM (K562) was 4%, the growth at 0.3 µM (RPMI-8226) was 90% and the growth at 0.03 µM (SNB-75) was 92%. The growth at 0.03 µM [2] was 104%, the growth at 3 µM (T47D [3]) was 26% and the growth at 0.003 µM (CCRF-CEM) was 91%. The growth at 0.003 µM (CAKI-1 [4]) was 93%, the growth at 3 µM (NCI-H522 [5]) was 14% and the growth at 0.003 µM (HOP-92) was 98%. For the same compound, the growth at 0.03 µM (ACHN [6]) was 103%, the growth at 0.003 µM [7] was 95% and the growth at 30 µM (MOLT-4) was 6%. It also gave a growth at 0.03 µM (RXF 393) of 100%, a growth at 30 µM (COLO 205) of -70% and a growth at 3 µM (MDA-MB-231) of 15%. The growth at 3 µM (OVCAR-8 [8]) was 16%, the growth at 0.003 µM (IGROV-1) was 103% and the growth at 0.003 µM (A549) was 96%. For the same compound, the growth at 0.03 µM (SW-620) was 98%, the growth at 3 µM (DU-145) was 22% and the growth at 30 µM (HL-60(TB)) was 1%. It also gave a growth at 0.3 µM (T47D [9]) of 100%, a growth at 0.3 µM (ACHN [10]) of 96% and a growth at 30 µM (OVCAR-8 [11]) of 7%. It also gave a growth at 3 µM (UACC-257) of -1%, a growth at 0.3 µM (SK-MEL-5) of 90% and a growth at 0.03 µM (NCI-H522 [12]) of 94%. The growth at 0.03 µM (Malme-3M) was 89%.

In the case of O=C(Nc1cccc(-n2cc(-c3ccncc3)c(-c3ccc(Cl)c(O)c3)n2)c1)Nc1ccc(Cl)c(C(F)(F)F)c1, the growth at 0.03 µM (OVCAR-4) is reported as 95%, the growth at 0.3 µM (CAKI-1 [1]) is reported as 87% and the growth at 0.3 µM (SNB-19) is reported as 98%. The growth at 3 µM (SK-MEL-2) was -41%, the growth at 3 µM (SF-268) was 10% and the growth at 0.003 µM (NCI-H322M) was 97%. The growth at 0.003 µM (SF-295) was 92%, the growth at 30 µM (K562) was 1% and the growth at 0.3 µM (RPMI-8226) was 73%. It also gave a growth at 0.03 µM (SNB-75) of 92%, a growth at 0.03 µM [2] of 102% and a growth at 3 µM (T47D [3]) of 11%. For the same compound, the growth at 0.003 µM (CCRF-CEM) was 98%, the growth at 0.003 µM (CAKI-1 [4]) was 89% and the growth at 3 µM (NCI-H522 [5]) was -11%. The growth at 0.003 µM (HOP-92) was 79%, the growth at 0.03 µM (ACHN [6]) was 98% and the growth at 0.003 µM [7] was 100%. For the same compound, the growth at 30 µM (MOLT-4) was -32%, the growth at 0.03 µM (RXF 393) was 93% and the growth at 30 µM (COLO 205) was -90%. For the same compound, the growth at 3 µM (MDA-MB-231) was -38%, the growth at 3 µM (OVCAR-8 [8]) was -16% and the growth at 0.003 µM (IGROV-1) was 98%. It also gave a growth at 0.003 µM (A549) of 98%, a growth at 30 µM (TK-10) of -19% and a growth at 0.03 µM (SW-620) of 101%. The growth at 3 µM (DU-145) was 10%, the growth at 30 µM (HL-60(TB)) was 6% and the growth at 0.3 µM (T47D [9]) was 95%. The growth at 0.3 µM (ACHN [10]) was 84%, the growth at 30 µM (OVCAR-8 [11]) was -14% and the growth at 3 µM (UACC-257) was -22%. The growth at 0.3 µM (SK-MEL-5) was 89%, the growth at 0.03 µM (NCI-H522 [12]) was 101% and the growth at 0.03 µM (Malme-3M) was 94%.

Reference: ChEMBL document CHEMBL2440076, “New triarylpyrazoles as broad-spectrum anticancer agents: design, synthesis, and biological evaluation” (Eur J Med Chem, 2013)
